Experimental data taken from PMC8774970 (Foods, 2022).
Marks after values point to notes of the source that are not given here.

What was measured:
[1] = Hydroxyl radical scavenging assay
Method: (§1) All experiments were realized in 96-well microplates, and the absorbance measurements were carried out on a Multimode Plate Reader, EnSpire, PerkinElmer, Waltham (US) United States of America. […] The results were expressed as 50% inhibition (IC50) and absorbance at 0.5 (A0.5) concentrations that are able to inhibit/block/chelate 50% or reduce the absorbance to 0.5 of the radical, enzyme catalytic sites or the formation of metallic complexes/cations.
It was evaluated according to the modified method of Smirnoff and Cumbes. […] The microplate was incubated for 30 min at 37 °C, and 36 μL H2O was added; immediately, the absorbance was measured at 510 nm. The result was given as IC50 value.

[2] = Silver nanoparticle-based method (SNP)
Method: as §1
The reduction of Ag^+ to spherical silver nanoparticles (SNPs) was developed by Özyürek et al.. […] The microplate was incubated for 30 min at 25 °C, and the absorbance was read at 423 nm. […]

O-Phenanthroline assay = details: concentration at 0.50 absorbance
Method: as §1
Next, it was incubated for 20 min at 30 °C before measuring the absorbance at 510 nm. The result was given as A0.5 value.

[3] = Cupric reducing antioxidant capacity (CUPRAC) assay; details: concentration at 0.50 absorbance
Method: as §1
The method described by Reference was used with no modifications. […] The result was given as A0.5 value.

[4] = Galvinoxyl radical (GOR) scavenging assay
Method: as §1
The result was given as IC50 value.

Reducing power test = details: concentration at 0.50 absorbance
Method: as §1
Later, 50 μL of TCA (trichloroacetic acid) (10%) and 10 μL of ferric chloride (0.1%) were added before finally measuring the mixture’s absorbance at 700 nm.

[5] = DPPH scavenging procedure
Method: as §1
Results were provided as IC50 values, and the I% were calculated using the above formula (*).

[6] = ABTS scavenging procedure
Method: as §1
The ABTS^•+ scavenging ability was performed spectrophotometrically according to the modified procedure of Re et al.. First, the ABTS^•+ was prepared as follows: 2 mM of ABTS was dissolved in H2O with 2.45 mM potassium persulfate (K2S2O8), and the mixture was conserved at ambient temperature for 16 h in obscurity. […] Thereafter, the microplate was incubated for 10 min before measuring the absorbance at 734 nm. The equation below (*) was used to calculate the inhibition percentage of ABTS radical, and results were presented as IC50 values. I% = ((Ac − As)/Ac) × 100 (*)(1)

[7] = β-Carotene/linoleic acid bleaching test
Method: as §1
Proceeding as described by Marco [23], with minor changes: 0.5 mg of β-carotene, 1 mL of chloroform, 25 μL of linoleic acid, and 200 μL of Tween 40 were added, forming an emulsified mixture. Then, it was evaporated under vacuum, and 50 mL of hydrogen peroxide (30%) were added with vigorous shaking. The absorbance at 470 nm should give a value between (0.8–0.9).

urease = biological target: T1, urease (Canavalia ensiformis, UniProt P07374); assay type: biochemical, Canavalia ensiformis (Jack bean)
T1 construct: purchased Sigma Aldrich
Method: Ultrapure water was obtained by a Milli-Q system (Millipore, Bedford, MA, USA).
All experiments were realized in 96-well microplates, and the absorbance measurements were carried out on a Multimode Plate Reader, EnSpire, PerkinElmer, Waltham (US) United States of America. […] The EamCE solution was prepared at seven different concentrations, (800, 400, 200, 100, 50, 25, 12.5 µg/mL) and every assay was realized in triplicate. The results were expressed as 50% inhibition (IC50) and absorbance at 0.5 (A0.5) concentrations that are able to inhibit/block/chelate 50% or reduce the absorbance to 0.5 of the radical, enzyme catalytic sites or the formation of metallic complexes/cations.
Urease inhibitory capability was determined by measuring ammonia production using the indophenol method [35]. Briefly, the reaction mixture consisted of 25 μL of enzyme solution ((5 U/mL) (Jack bean urease)), 10 μL of the EamCE solution, and 50 μL of urea substrate solution, then it was incubated at 30 °C for 15 min. Then, 45 μL of phenol reagent (2 g of phenol (C6H5OH) in 25 mL H2O + 25 mg of Na2[Fe(CN)5NO],2H2O in 25 mL H2O) and 70 μL of basic reagent (0.7125 g of NaOH in 25 mL H2O + 1.175 mL of NaOCl in 25 mL H2O) were added later. After 50 min of incubation, the absorbance was measured at 630 nm, and result was given as IC50 value.

[8] = Superoxide alkaline DMSO test
Method: as §1
The superoxide radical was produced as described Kunchandy’s method: 30 µL of NBT (nitroblue tetrazolium) (1 mg/mL) and 40 μL of sample were added to 130 μL alkaline DMSO (1.0 mL DMSO, 5 mMNaOH, 100 µL H2O). The absorbance of the reaction mixture was measured at 560 nm, and results were provided as IC50 values.

T1 sequence (P07374 whole entry, looked up): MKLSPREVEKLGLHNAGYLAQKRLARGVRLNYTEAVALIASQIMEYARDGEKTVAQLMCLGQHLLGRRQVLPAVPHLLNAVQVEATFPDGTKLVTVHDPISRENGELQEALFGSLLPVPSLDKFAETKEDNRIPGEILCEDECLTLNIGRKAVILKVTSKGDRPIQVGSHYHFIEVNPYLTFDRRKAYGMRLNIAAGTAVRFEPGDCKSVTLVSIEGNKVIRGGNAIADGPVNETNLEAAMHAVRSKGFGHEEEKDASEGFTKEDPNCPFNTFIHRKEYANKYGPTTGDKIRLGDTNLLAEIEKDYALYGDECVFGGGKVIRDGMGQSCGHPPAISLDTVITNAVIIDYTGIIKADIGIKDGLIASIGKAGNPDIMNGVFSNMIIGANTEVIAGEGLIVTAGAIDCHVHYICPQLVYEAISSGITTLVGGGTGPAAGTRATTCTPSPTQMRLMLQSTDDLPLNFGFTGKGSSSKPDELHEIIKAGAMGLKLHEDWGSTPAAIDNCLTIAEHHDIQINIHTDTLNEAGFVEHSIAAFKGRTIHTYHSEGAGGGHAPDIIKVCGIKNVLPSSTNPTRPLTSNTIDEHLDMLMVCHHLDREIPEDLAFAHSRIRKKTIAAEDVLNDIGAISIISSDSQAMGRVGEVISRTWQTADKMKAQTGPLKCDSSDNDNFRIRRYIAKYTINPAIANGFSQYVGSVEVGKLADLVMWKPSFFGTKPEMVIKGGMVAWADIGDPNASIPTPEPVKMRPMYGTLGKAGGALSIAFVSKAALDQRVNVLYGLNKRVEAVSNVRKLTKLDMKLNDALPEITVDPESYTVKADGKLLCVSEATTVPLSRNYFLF

| Molecule | Hydroxyl Radical (IC50) [1] | SNP [2] | Phenonthroline (A0.5) (O-Phenanthroline assay) | CUPRAC (A0.5) [3] | GOR (IC50) [4] | Reducing Power (A0.5) (Reducing power test) | DPPH (IC50) [5] | ABTS (IC50) [6] | Beta Carotene (IC50) [7] | Anti-Urease IC50 (urease) | DMSO Alcalin (IC50) [8] |
| --- | --- | --- | --- | --- | --- | --- | --- | --- | --- | --- | --- |
| O=C1O[C@H]([C@@H](O)CO)C(O)=C1O [Ascorbic Acid] | 32.33 ± 1.17 ^b µg/mL | 7.14 ± 0.05 ^b µg/mL | 3.08 ± 0.02 ^d µg/mL | 8.31 ± 0.15 ^d µg/mL | 5.02 ± 0.01 ^d µg/mL | 6.77 ± 1.15 ^c µg/mL | – | – | – | – | – |
| COc1ccc(O)c(C(C)(C)C)c1 [BHA] | – | – | 0.93 ± 0.07 ^c µg/mL | 5.35 ± 0.71 ^c µg/mL | 3.32 ± 0.18 ^c µg/mL | – | 6.14 ± 0.41 ^c µg/mL | 1.81 ± 0.10 ^c µg/mL | 0.91 ± 0.01 ^c µg/mL | – | – |
| Cc1cc(C(C)(C)C)c(O)c(C(C)(C)C)c1 [BHT] | – | – | 2.24 ± 0.17 ^b µg/mL | 8.97 ± 3.94 ^b µg/mL | 5.38 ± 0.06 ^b µg/mL | – | 12.99 ± 0.41 ^b µg/mL | 1.29 ± 0.30 ^b µg/mL | 1.05 ± 0.03 ^b µg/mL | – | – |
| NC(N)=S [Thiourea] | – | – | – | – | – | – | – | – | – | 11.57 ± 0.68 ^b µg/mL | – |
| Cc1c(C)c2c(c(C)c1O)CCC(C)(C(=O)O)O2 (stereo not shown) [Trolox] | – | 34.17 ± 1.23 ^c µg/mL | 5.21 ± 0.27 ^e µg/mL | 8.69 ± 0.14 ^e µg/mL | 4.31 ± 0.05 ^e µg/mL | 5.25 ± 0.20 ^e µg/mL | 5.12 ± 0.21 ^e µg/mL | 3.21 ± 0.06 ^d µg/mL | – | – | – |
| Cc1c(C)c2c(c(C)c1O)CC[C@@](C)(CCC[C@H](C)CCC[C@H](C)CCCC(C)C)O2 [α-Tocopherol] | – | – | – | – | – | 34.93 ± 2.38 ^b µg/mL | 13.02 ± 5.17 ^d µg/mL | – | – | – | ˂3.125 µg/mL |
| Tannic Acid | – | – | – | – | – | 5.39 ± 0.91 ^d µg/mL | – | – | – | – | <3.125 µg/mL |
